Measurements from US20220106282A1, “TREATMENT FOR BREAST CANCER, INCLUDING TRIPLE-NEGATIVE BREAST CANCER” (priority 2018, published 2022).

Assays:
[1] = tested on: passaged human tumor of triple-negative breast cancer; experiment: Animal models with passaged human triple-negative breast tumor; type: in vivo
[2] = tested on: MDA-MB-231 line of cells of triple-negative breast cancer; experiment: Cell growth inhibition, MDA-MB-231; type: cell-based; conditions: Homo sapiens
[3] = Acute oral toxicity, OECD 423 test; type: in vivo; conditions: female, FVB transgenic for HER-2/neu, mouse, in vivo, po, oral (i.g.), OECD 423

Q: Which “Action compared to Tamoxifen and Letrozole” value [1] does the source give for C[C@H]1Oc2cc(OS(N)(=O)=O)ccc2[C@H]2CC[C@]3(C)C(=O)CCC[C@H]3[C@H]21 [compound of formula (1), 3-O-sulphamoyloxy-7β-methyl-D-homo-6-oxa-8α-estra-1,3,5(10)-trien-17a-one] here?
A: Its value is “better action”.

Q: And the IC50 [2]?
A: The IC50 was 4.8 µM.

Q: What about the LD50 at 14 days [3] of the same molecule?
A: The LD50 at 14 days was ≥ 5000 mg/kg.
